Reference: patent US20220194939A1, “Novel compounds and methods of use treating fructose-related disorders or diseases” (Colorado Research Partners, LLC, priority 2019, published 2022)
Counter-ions that a name gives are not always drawn.

biological target: T1, KHK (Homo sapiens, UniProt P50053); assay: coupled enzyme assay for KHK activity; assay type: biochemical; conditions: purified human recombinant KHK, PK/LDH coupled assay, A340 at 25° C., 0.1 mM ATP, 0.2 mM fructose; isoform (KHK-C or KHK-A) not given
T1 construct: (His)6 tag (N); thrombin cleavage site (N); made in house; host or cells: E. coli BL-21 (DE3)
T1 sequence (P50053 1-298): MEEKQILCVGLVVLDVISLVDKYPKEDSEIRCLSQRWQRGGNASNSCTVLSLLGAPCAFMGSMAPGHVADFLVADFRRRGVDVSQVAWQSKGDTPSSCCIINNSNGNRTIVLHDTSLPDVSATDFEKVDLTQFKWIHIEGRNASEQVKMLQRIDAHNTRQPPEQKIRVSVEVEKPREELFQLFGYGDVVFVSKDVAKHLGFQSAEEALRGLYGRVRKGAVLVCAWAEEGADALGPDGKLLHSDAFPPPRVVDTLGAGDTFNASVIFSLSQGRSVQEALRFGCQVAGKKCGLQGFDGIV
Description: Specific coupled enzyme screening assays were developed for KHK-C and KHK-A using recombinant proteins. Purified human recombinant KHK-C and KHK-A were produced using by expression in E. coli BL-21 (DE3) using IPTG induction as a His-tagged fusion proteins and purified using Ni-NTA chromatography on His-Trap FF columns. For KHK-C, the coding region from NCBI refseq number NM_006488 was inserted at the Nde I site of pET28a(+) vector, which puts it downstream from an amino-terminal (His)6 tag and a thrombin cleavage site. The same was done for KHK-A using the coding regions from NCBI refseq number NM_000221.2. The protein was expressed in BL-21 (DE3) using IPTG induction and purified using Ni-NTA (GE His Trap FF) column. The protein was washed with 100 column volumes, eluted with 3 column volumes, and dialyzed with HEPES, pH 7.4 buffers containing 20, 500, and 0 mM imidazole, respectively. The dialysate was concentrated by ultrafiltration (10kD MWCO) to >15 mg/mL protein. The protein prep was >95% pure on SDS-PAGE and the molecular weight was confirmed by relative mobility to be 33,730 Da (34,826 expected).
The assay uses the product of the KHK reaction, ADP, to drive a signal measured in real time for measuring the reaction rate. This consists of a 3-step, coupled-enzyme process by which pyruvate kinase (PK), which converts the ADP from the KHK reaction along with phosphoenolpyruvate (PEP) to ATP and pyruvate, respectively. The pyruvate is converted along with NADH to lactate and NAD+ by lactate dehydrogenase (LDH). The disappearance of NADH is measured kinetically by monitoring A340 at 25° C. for 15 minutes. The enzymatic assay was carried out in a total reaction volume of 200 μL containing 33 mM triethanolamine-HCl, pH 7.4, 6 mM MgCl2, 100 mM KCl, 0.1 mM ATP, 1.33 mM PEP, 0.3 mM NADH, 0.2-1.0 U of PK, 0.2-1.0 U of LDH, and 150-240 nM KHK-C or KHK-A (0.01-0.02 U). Fructose was added to initiate the reactions to 0.2 mM, except for the no fructose controls which utilized water. This high-throughput assay was used to identify inhibitors that have an IC50 value<1 μM for KHK-C and to confirm that those values for KHK-A were not more than 2-fold lower.

How did the IC50 turn out when `Cc1cccc(-n2ncc3ccc(NC(=O)[C@H](CO)NC(=O)OC(C)C)cc32)c1` [Compound 37, (S)-isopropyl (3-hydroxy-1-oxo-1-((1-(m-tolyl)-1H-indazol-6-yl)amino)propan-2-yl)carbamate] was run?
Its IC50 is 4000 nM.

Which IC50 does the source give for `Cc1cccc(-n2ncc3ccc(NC(=O)C(N)C(N)=O)cc32)c1` (centres unmarked) [Compound 38, 2-amino-N1-(1-(m-tolyl)-1H-indazol-6-yl)malonamide hydrochloride] here?
The IC50 was 1400 nM.

`Cc1cccc(-n2ncc3ccc(NC(=O)C(N)C(=O)O)cc32)c1` (centres unmarked) [Compound 39, 2-amino-3-oxo-3-((1-(m-tolyl)-1H-indazol-6-yl)amino)propanoic acid hydrochloride] was tested. Which IC50 did it give?
Its IC50 is 700 nM.

With `Cc1cccc(-n2nnc3ccc(NC(=O)[C@@H](N)CO)cc32)c1` [Compound 40, (S)-2-amino-3-hydroxy-N-(1-(m-tolyl)-1H-benzo[d][1,2,3]triazol-6-yl)propanamide hydrochloride] as the molecule, how does the IC50 read?
The IC50 was 140 nM.

Which IC50 does the source give for `CC(=O)OC[C@H](N)C(=O)Nc1ccc2cnn(-c3cccc(C)c3)c2c1` [Compound 41, (S)-2-amino-3-oxo-3-((1-(m-tolyl)-1H-indazol-6-yl)amino)propyl acetate hydrochloride] here?
Its IC50 is 2700 nM.

For `Cc1cccc(-n2ncc3cc(C)c(NC(=O)[C@@H](N)CO)cc32)c1` [Compound 42, (S)-2-amino-3-hydroxy-N-(5-methyl-1-(m-tolyl)-1H-indazol-6-yl)propanamide hydrochloride], which IC50 is on record?
The IC50 was 1800 nM.

With `CCc1nn(-c2cccc(C)c2)c2cc(NC(=O)[C@@H](N)CO)ccc12` [Compound 43, (S)-2-amino-N-(3-ethyl-1-(m-tolyl)-1H-indazol-6-yl)-3-hydroxypropanamide hydrochloride] as the molecule, how does the IC50 read?
Its IC50 is 1860 nM.

Which IC50 does the source give for `Cc1cccc(-n2ncc3cnc(NC(=O)[C@@H](N)CO)cc32)c1` [Compound 44, (S)-2-amino-3-hydroxy-N-(1-(m-tolyl)-1H-pyrazolo[4,3-c]pyridin-6-yl)propanamide hydrochloride] here?
The IC50 was 15000 nM.

For `Cc1cccc(-n2ncc3ncc(NC(=O)[C@@H](N)CO)cc32)c1` [Compound 45, (S)-2-amino-3-hydroxy-N-(1-(m-tolyl)-1H-pyrazolo[4,3-b]pyridin-6-yl)propanamide hydrochloride], which IC50 is on record?
Its IC50 is 250 nM.

With `CCc1nn(-c2cccc(C)c2)c2cc(NC(=O)[C@@H](N)CO)c(C)cc12` [Compound 46, (S)-2-amino-N-(3-ethyl-5-methyl-1-(m-tolyl)-1H-indazol-6-yl)-3-hydroxypropanamide hydrochloride] as the molecule, how does the IC50 read?
Its IC50 is 1900 nM.

For `Cc1cccc(-n2nc(C(F)F)c3ccc(NC(=O)[C@@H](N)CO)cc32)c1` [Compound 48, (S)-2-amino-N-(3-(difluoromethyl)-1-(m-tolyl)-1H-indazol-6-yl)-3-hydroxypropanamide hydrochloride], which IC50 is on record?
The IC50 was 460 nM.
